In US8212036B2, “Maleate salts of 6-(5-chloro-2-pyridyl)-5-[(4-methyl-1-piperazinyl)carbonyloxy]-7-oxo-6,7-dihydro-5H-pyrrolo[3,4-b]pyrazine” (Sunovion Pharmaceuticals Inc., priority 2007, dated 2012):

Experiments:
Assay type in all cases: physicochemical
[1] = Aqueous solubility (24 hour equilibrated suspension in water, HPLC); details: for pH measured at saturation: saturated suspension in water
Method: The aliquot was diluted and analyzed by HPLC (Waters). The data was compared to a standard curve generated from a set of solutions of known concentrations. The standard curve and the samples were analyzed using a HPLC using the following conditions: […]

[2] = Intrinsic dissolution, USP 28 method <1087>; details: isotonic 50 mM acetate (pH 4.5) buffer at 37° C., 50 rpm
Method: The intrinsic dissolution (Table 3) was determined using USP 28 method <1087> (United States Pharmacopeia, The National Formulary, USP 28, 28th edition, Rockville, […]., 2005). Preparation of each test sample was performed as per USP 28 method <1087> by weighing and transferring the material to the die cavity and compressing for 1 minute at the minimum compression pressure necessary to form a nondisintegrating compacted pellet. The dissolution media used was isotonic 50 mM acetate buffer (pH 4.5) at 37° C. and speed was set at 50 rpm. Each run was halted at 5 min, irrespective of the percent dissolved. Each salt was run in duplicate.

[3] = Tablet dissolution over time at various pH; details: for Dependence of dissolution on pH: oral dosage form, media pH 1 to 6.8 and deionized water
Method: Dissolution over time of eszopiclone free base at various pHs (FIG. 1) was compared to that of eszopiclone maleate salt (FIG. 2) in dissolution media at various pH values using Hanson Research SR8-Plus Dissolution Apparatus and C-Technologies Fiber Optic UV Probes at 305 nm (excipients subtracted at 410 nm). The dissolution media used were (a) pH 1 (0.1N HCl) 50 ml of conc HCl mixed in 6 L of water; (b) pH 4.5 acetate buffer (20 mM) 5.88 g of sodium acetate trihydrate dissolved in 6 L of water, pH adjusted to 4.5 with acetic acid; (c) pH 5.5 phosphate buffer (20 mM) 16.3 g of potassium dihydrogen phosphate in 6 L of water. pH adjusted to 5.5 with NaOH; (d) pH 6.8 phosphate buffer (20 mM) 16.3 g of potassium dihydrogen phosphate in 6 L of water. pH adjusted 6.8 with NaOH. A standard dissolution protocol was used. The standard solution (0.006 mg/mL of eszopiclone free base) was prepared by weighing a known amount (˜20 mg) of the free base into a 100 mL volumetric flask. 10 mL of acetonitrile was added into the flask and sonicated until the solids dissolved completely. The solution was cooled to room temperature and made up to the 100 mL mark using media and mixed well. Dilute 3 mL to 100 mL using media. The tables were prepared by transferring 500 mL dissolution media into the 6 vessels. Blank readings were taken for all the probes using media. Standards were read for individual vessels. Probes were washed with media and then inserted back into each vessel. One tablet was transferred into each vessel. The dissolution program was started immediately and readings were taken at 305 nm for 60 min (every 1 min for 20 min and then every 10 min).
FIG. 1 depicts dissolution profiles of the eszopiclone free base at pH 1 (0.1N HCl), pH 4.5 in buffer, pH 5.5 in buffer, pH 6.8 in buffer and in deionized water. […] FIG. 2 depicts dissolution profiles of the eszopiclone maleate salt at pH 1 (0.1N HCl), pH 4.5 in buffer, pH 5.5 in buffer, pH 6.8 in buffer and in deionized water. It can be seen that the dissolution is greater than 50% within five minutes and greater than 80% at one hour at all pH.

[4] = all pH (pH 1, 4.5, 5.5, 6.8, deionized water)

SMILES: CN1CCN(C(=O)O[C@H]2c3nccnc3C(=O)N2c2ccc(Cl)cn2)CC1 [Free base, [(9S)-8-(5-chloropyridin-2-yl)-7-oxo-2,5,8-triazabicyclo[4.3.0]nona-1,3,5-trien-9-yl]4-methyl piperazine-1-carboxylate]
- pH measured at saturation [1]: 7.6
- Solubility ([1]; water, 24 hour at ambient): 0.2^1 mgA/mL
- Intrinsic dissolution Average [2]: 0.5 mgA/cm^2/min
- Intrinsic dissolution Run 1 [2]: 0.6 mgA/cm^2/min
- Intrinsic dissolution Run 2 [2]: 0.5 mgA/cm^2/min
- Part of tablet dissolved at one hour ([3]; deionized water): less than one half
- Dependence of dissolution on pH [3]: decreases markedly as the pH rises
- Dissolution of tablet ([3]; pH 1 (0.1N HCl)): rapid and complete
- Part of tablet dissolved at one hour ([3]; pH 6.8 buffer): less than one half

SMILES: CN1CCN(C(=O)O[C@H]2c3nccnc3C(=O)N2c2ccc(Cl)cn2)CC1.O=C(O)/C=C\C(=O)O [Maleate, (S)-Zopiclone Maleate]
- pH measured at saturation [1]: 4.4
- solubility thermodynamic at 24 h ([1]; water, 24 hour at ambient): 9000 µg/mL
- Intrinsic dissolution Average [2]: 1.3 mgA/cm^2/min
- Intrinsic dissolution Run 1 [2]: 1.4 mgA/cm^2/min
- Intrinsic dissolution Run 2 [2]: 1.2 mgA/cm^2/min
- Dissolution at one hour [3, 4]: greater than 80%
- Dissolution within five minutes [3, 4]: greater than 50%
- Dependence of dissolution on pH [3]: dissolve quickly and at substantially the same rate, regardless of the pH
